Data: patent US20020107197A1, “Ligands for G protein coupled receptors and methods of using them” (priority 2000, published 2002)

Tests used:
Assay type in all cases: cell-based
GPR4 [1] = biological target: T1, GPR4 (Homo sapiens, UniProt P46093); assay: SRE luciferase reporter in GPR4-transfected HEK293 cells; conditions: PTX 100 ng/ml 16 h; C3-exoenzyme co-transfected
T1 construct: were used to generate full length GPR4, which was digested with EcoRI and Xba I and cloned into the pBs3HA vector; expressed in transfected cells
T1 sequence (P46093 whole entry): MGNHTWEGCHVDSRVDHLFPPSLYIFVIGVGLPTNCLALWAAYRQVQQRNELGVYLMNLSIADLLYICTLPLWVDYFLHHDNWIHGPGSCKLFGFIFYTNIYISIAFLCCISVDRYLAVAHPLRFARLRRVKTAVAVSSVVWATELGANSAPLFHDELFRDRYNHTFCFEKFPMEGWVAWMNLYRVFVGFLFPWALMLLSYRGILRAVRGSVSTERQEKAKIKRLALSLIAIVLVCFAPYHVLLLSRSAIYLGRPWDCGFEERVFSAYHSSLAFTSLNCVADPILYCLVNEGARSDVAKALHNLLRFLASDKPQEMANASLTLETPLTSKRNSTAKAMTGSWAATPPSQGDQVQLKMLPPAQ
Description: The serum-response element (SRE) reporter system is a sensitive assay for receptors of lipid factors (An et al. (1998) J Biol Chem 273, 7906-7910; An et al. (1999) Mol Pharmacol 55, 787-794). The SRE reporter system used herein (pSRE-Luc) was a gift from Dr. Songzhu An (UCSF), or may be purchased from Stratagene (La Jolla, Calif.). Both systems give identical results. HEK293 and HEK293GPR4 cells were cultured in RPMI1640 with 10% FBS in 10 cm dishes to ˜85% confluence. To the cells in each dish, pSRE-Luc (10 μg) was transfected in the presence of 60 μl LipofectAMINE reagent. Cells were seeded in 96-well plates 16 h after transfection, incubated for another 24 h in RPMI1640 with 10% FBS, and starved in serum-free medium for 16 h. SPC (dissolved in PBS to 10 mM) and other lipids (LPCs were dissolved in 70% ethanol. Other lipids were dissolved in PBS, 70-95% ethanol, or 100% MeOH) were diluted in serum free RPMI 1640 and added to the cells, followed by a 10 h incubation. Luciferase activity was measured in Microlite™ 1 plates (DYNEX Technologies, Inc., Virginia) using 60 μl of cell lysate and 20 μl luciferase substrate. PTX (100 ng/ml) was added during the 16 h serum starvation period and pcDNA1-C3 (encoding the C3-exoenzyme, 2 μg) was co-transfected with pSRE-Luc (10 μg). All experiments were performed in quadruplicate and were repeated at least three times. The Student's t test was performed using the GraphPad Instat software (San Diego, Calif.). p<0.05 was considered to be statistically significant.

GPR4 [2] = biological target: T1, GPR4; assay: DNA synthesis ([3H]thymidine incorporation) in GPR4-infected Swiss 3T3 cells; conditions: PTX 100 ng/ml for 16 h; GFP- and GPR4-GFP expressing cells
Description: The effect of SPC and LPC on DNA synthesis was measured using [^3H] thymidine incorporation. Briefly, GPR4-ires-GFP- and GFP-Swiss 3T3 cells were plated in 96-well plates, serum-starved for 24 h, and treated with SPC, LPC, or other lipids in serum-free DMEM for 24 h. Cells were incubated with 0.75 μCi/ml [^3H]thymidine in serum-free DMEM for the last 18 h. Cells were harvested onto filter papers presoaked in 1% polyethylenimine using the automated cell harvester HARVEST 96. Incorporated [^3H]thymidine was counted in a 1450 Microbeta Trilux Liquid Scintillation and Luminescence Counter (Perkin-Elmer-Wallac, Inc.).

GPR4 [3] = biological target: T1, GPR4; assay: Single-cell intracellular calcium assay (fura-2) in GPR4-GFP-transfected MCF10A cells; conditions: PTX 100 ng/ml, 16 h pretreatment
Description: Measurement of [Ca^2+]i, was performed as described previously in Xu et al. (2000) Nat Cell Biol 2, 261-267. Briefly, pGPR4-GFP-transfected MCF10A cells were grown in specialized glass-bottom dishes (Bioptech, Inc., Butler, Pa.) and loaded with fura-2 in HEPES buffered saline. Using a dual-wavelength spectrofluorometer (RFK-6002, Photon Technology Int'l, So. Brunswick, N.J.) coupled to an inverted fluorescence microscope (Olympus, IX-70, Lake Success, N.Y.), GFP-positive cells were identified using an excitation wavelength of 488 nm, a dichroic 505 nm long-pass filter and an emitter filter at bandpass of 535 nm (Chroma Technology, Brattleboro, Vt.). Measurements of [Ca^2+]i were performed on individual GPR4-GFP positive cells at excitation wavelengths of 340 and 380 nm and an emission wavelength of 510 nm. Conversion of the 340/380 ratio value into [Ca^2+]i in nM was estimated by comparing the cellular fluorescence ratio with ratios acquired using fura-2 (free acid) in buffers containing known Ca^2+ concentrations. [Ca^2+]i was then calculated as described by Grynkiewicz et al. (1985) J Biol Chem 260, 3440-3450. All calcium assays were performed in the presence of 1 mM EGTA in the assay buffers. Therefore, intracellular calcium release, not calcium influx, was analyzed.
To test whether GPR4 is a receptor for SPC, MCF10A cells were transiently transfected with pGPR4-GFP.
The GFP receptor fusion was used to identify positively transfected cells, and single-cell calcium assays were performed as described in our previous studies, such as Xu et al. (2000) Nat Cell Biol 2, 261-267.

GPR4 [4] = biological target: T1, GPR4; assay: ERK MAP kinase activation (phospho-ERK Western blot) in GPR4-infected Swiss 3T3 cells; conditions: PTX 100 ng/ml 12-16 h
Description: MAP kinases are key signaling intermediates of DNA synthesis and cell proliferation. Swiss 3T3 cells were infected with MSCV GPR4-ires-GFP or MSCV ires-GFP, and subsequently cells sorted by FACS for positive expression of GFP as described previously (Kabarowski et al. (2000) Proc Natl Acad Sci USA. 97, 12109-12114). Cells were plated in 6-well plates in DMEM containing 5% FBS, serum-starved overnight, and then treated lipids in DMEM for the indicated times. Cells were lysed on ice in RIPA buffer containing 50 mM Tris-HCl, pH 7.5, 1% Nonidet P-40, 0.5% deoxycholate,0.1% SDS, 150 mM NaCl, 2 mM EGTA, 25 mM sodium fluoride, 1 mM sodium orthovanadate, and 1× protease inhibitors (Sigma P8340). Lysates containing equal amounts of protein were separated on 10% SDS-polyacrylamide gels and transferred onto nitrocellulose membranes. Antibodies against phosphorylated ERK1/2 (Cell Signaling Technologies; Beverly, Mass.) were used to probe the membrane and the ECL system (Amersham) was used for detection. To normalize the amounts of protein loaded in each lane, membranes were stripped and re-probed with antibodies against total ERK (Cell Signaling Technologies). In some experiments, cells were pretreated with 100 ng/ml PTX for 12-16 h prior to SPC and LPC stimulation.

OGR1 = biological target: T2, OGR1 (Homo sapiens, UniProt Q15743); assay: ERK activation in OGR1-infected Swiss 3T3 cells
T2 construct: expressed in transfected cells
T2 sequence (Q15743 whole entry, species assumed): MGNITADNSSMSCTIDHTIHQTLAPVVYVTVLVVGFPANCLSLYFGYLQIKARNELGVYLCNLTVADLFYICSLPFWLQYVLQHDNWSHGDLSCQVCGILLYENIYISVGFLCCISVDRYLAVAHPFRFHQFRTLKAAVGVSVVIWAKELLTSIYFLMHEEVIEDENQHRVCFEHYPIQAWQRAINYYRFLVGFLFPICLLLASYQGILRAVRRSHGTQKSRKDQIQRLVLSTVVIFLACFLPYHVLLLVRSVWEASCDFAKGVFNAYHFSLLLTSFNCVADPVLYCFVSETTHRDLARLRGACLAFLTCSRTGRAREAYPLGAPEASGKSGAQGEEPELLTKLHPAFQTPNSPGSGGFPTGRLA

pertussis toxin [PTX]
inhibition of SRE-reporter activation by SPC and 16:0-LPC (GPR4 [1]): partially inhibited SRE-reporter activation | effect of PTX on DNA synthesis stimulated by SPC (GPR4 [2]): inhibited by PTX | effect of PTX on [Ca2+]i response to SPC and LPC (GPR4 [3]): completely abolished | PTX sensitivity of SPC-induced ERK activation (GPR4 [4]): sensitive to PTX | PTX sensitivity of SPC-induced ERK activation (OGR1): PTX-insensitive
